Laboratory results from patent publication US11453642B2, “Oxygenated amino- or ammonium-containing sulfonic acid, phosphonic acid and carboxylic acid derivatives and their medical use” (GRI BIO, INC., priority 2011, dated 2022).
“And” between values parts separate entries of the source, which are not always exact repeats. Identical values can stand only once. Marks after values point to notes of the source that are not given here.

Experiments:
RBL-2H3 cells = assay: Maximum tolerated concentration (cytotoxicity by lactate dehydrogenase release); format: cell-based, Rat; settings: for MTC (maximum tolerated concentration): highest concentration not causing cytotoxicity (LDH release), RBL-2H3 cells; for SI (safety index): ratio between MTC and IC50
From the text: The safety index (SI) of a test compound is the ratio between the maximum tolerated concentration and the IC50 and is used as a measure of the relative safety of the test compound.

[1] = test system: allergic contact dermatitis response in mice; assay: Allergic contact dermatitis (TDI) model in mice, mouse ear swelling test; format: in vivo
Description: The anti-inflammatory and anti-allergic effects of compounds 1a and 1c were assessed in a mouse model of allergic contact dermatitis, a response driven primarily by T helper type 2 (Th2) cells. […] In this model, an allergic dermatitis response is obtained by sensitizing mice to TDI and subsequently challenging them with antigen by topical administration onto the ears. A quantitative assessment of anti-inflammatory and anti-allergic effects of topically or orally administered test compounds is possible by measuring the resulting ear swelling. The advantages of the allergic contact dermatitis model (Zöllner et al., Bioessays 26:693-6 (2004)) are reproducibility and reliability (>90% of BALB/c mice respond to sensitization), a short induction protocol, quantitative assessment by measuring ear thickness, atopic dermatitis-like skin lesions can be induced, and clinically relevant pharmaceuticals, such as corticosteroids, calcineurin-inhibitors and PDE4-inhibitors, are effective in this model.
Female BALB/c-mice were obtained from Charles River (Sulzfeld, Germany) at age 8 weeks. All animals were housed in groups of eight per cage at 22° C. with a 12 h light/dark-cycle, Water and a standard diet (Altromin, Lage/Lippe, Germany) were available ad libitum. All animals were acclimatized for one week before experimental procedures were commenced.
Experimental procedures for BALB/c mice housing, TDI sensitization and challenge, and measurement of ear thickness were performed as previously described (Baumer et al., J Pharm Pharmacol, 55:1107-1114 (2003)) with the following modifications. For active sensitization, 100 μL of 5% (w/v) TDI was administered to the shaved and stripped abdominal epidermis on day one, and for the next three consecutive days, 50 μL of 5% (My) TDI was applied. The allergic reaction was boosted 21 days later by application of 50 μL of 0.5% (w/v) TDI. For the examination of test compound effects, the left ears were used for the TDI challenge (20 μL of 0.5% in acetone) and ear thickness measured 3 h before and 24 h after challenge.
Group size was n=7 mice unless otherwise stated. Test compounds were freshly prepared before administration.
Administration time: to determine optimal time for administration treatment groups were treated orally by gavage with 100 mg/kg of compound 1a or 1c (suspended in 0.5% tylose, 10 mL/kg) 1, 4 or 16 h before topical TDI challenge. One group was treated with 100 mg/kg miltefosine orally, 16 h before challenge (based on available data for optimal administration time for miltefosine) and vehicle treated mice received tylose (10 mL/kg) orally, 4 h before challenge.
Dose-response: two groups of mice were treated orally with compound 1a at 25 mg/kg or 100 mg/kg suspended in 0.5% tylose, 4 h before topical TDI challenge. Vehicle treated mice received 0.5% tylose orally 4 h before challenge. As a positive control, dexamethasone was administered in saline solution at 1 mg/kg or 3 mg/kg, 2 h and 30 min before challenge and 1 h after challenge. The dose and dosing scheme for dexamethasone was based on previous experience showing a maximal effect in this model.
Compound 1a was administered to two groups of mice topically in 20 μl of a 2% or 6% solution in propyleneglycol. The suspension was heated to 60° C. and mixed using a thermomixer (Eppendorf) until it became clear. The solution was applied, 2 h before topical TDI challenge by administration of 10 μl onto each of the inner and outer surfaces of the left ears. A vehicle group (17=5) was treated with propyleneglycol. As a positive control, diflorasone, diacetate was administered at 0.01% (low dose) and 0.05% (high dose) in 20 μl acetone, 2 h before challenge. A basal control group was left untreated.
Mean and standard error of the mean (SEM) were calculated from individual ear edema values. […]

[2] = administration time study, 100 mg/kg oral, 1 h before TDI challenge
[3] = administration time study, 100 mg/kg oral, 4 h before TDI challenge
[4] = administration time study, 100 mg/kg oral, 16 h before TDI challenge

Row | Compound | MTC (maximum tolerated concentration) (RBL-2H3 cells) | SI (safety index) (RBL-2H3 cells) | Inhibition of mouse ear swelling [1, 2] | Inhibition of mouse ear swelling [1, 3] | Inhibition of mouse ear swelling [1, 4] | inhibition relative to the highest dose of dexamethasone ([1]; dose-response study, oral, versus dexamethasone 3 mg/kg) | Inhibition of mouse ear swelling ([1]; dose-response study, 25 mg/kg oral, 4 h before TDI challenge) | Inhibition of mouse ear swelling ([1]; dose-response study, 100 mg/kg oral, 4 h before TDI challenge) | toxicity at the doses used ([1]; oral 25 or 100 mg/kg) | reduction of ear swelling compared to vehicle control ([1]; topical solution at 2% or 6%) | Inhibition of mouse ear swelling ([1]; topical, 20 μl of 2% solution in propyleneglycol, 2 h before TDI challenge) | Inhibition of mouse ear swelling ([1]; topical, 20 μl of 6% solution in propyleneglycol, 2 h before TDI challenge)
1 | CCCCCCCCCCCCCCCCN(C)CC(O)CS(=O)(=O)O (centres unmarked) [Compound 1a, 2-hydroxy-3-(N-methylhexadecylammonio)propane-sulfonate] | 75 µM | 10.9 | 72.6*** % | 73.4*** % | 29.0% | 52% | 45% and 44.9*** % | 45% and 44.4*** % | no toxicity | up to 68% | 67.9** % | 63.1** %
2 | CCCCCCCCCCCCN(C)CC(O)CS(=O)(=O)O (centres unmarked) [Compound 1c, 2-hydroxy-3-(N-methyldodecylammonio)propanesulfonate] | 200 µM | 48.8 | 58.1** % | 68.5*** % | 42.7^§ % | – | – | – | – | – | – | –
